Experimental data published in US10946071B2 (MediciNova, Inc., priority 2018, dated 2021).

Tests used:
[1] = Sanftner et al., Xenobiotica 2009; cited from earlier work
[2] = tested on: subjects with primary or secondary progressive multiple sclerosis; assay: Phase 2 randomized, double-blind, placebo-controlled 96 week study: progression of disability (EDSS), Cox proportional-hazards regression; type: in vivo, human; details: for Risk of Confirmed Disability Progression: Cox Hazard Ratio (ibudilast vs. placebo): ibudilast 100 mg/d, 90% CI
Procedure: A total of 255 male and female subjects from 21 to 65 years old, inclusive, were enrolled into one of two treatment arms (ibudilast 100 mg/d or matching-placebo). […] During the study, subjects were allowed to change medications from one injectable to the other. […] Inhaled and topical steroids are allowed. If a relapse episode occured, a single course of systemic corticosteroids was permitted, as prescribed by the treating neurologist. Subjects returned to the clinic for follow-up visits on a regular basis at Week 4, 8, 12, 24, 36, 48, 60, 72, 84 and 96.
The double-blind Treatment Phase consisted of a Baseline visit followed by 10 scheduled clinic visits. The Baseline Visit had to have occured within 45 days following the Screening Visit. At the Baseline Visit (Day 1), subjects who completed all of the screening assessments and continued to meet eligibility criteria were randomized to one of two treatment groups (ibudilast 100 mg/d or placebo) in a 1:1 ratio.
Subjects took their first dose of study medication (30 mg ibudilast or placebo) on the evening of the Baseline Visit (Day 1). On the morning of Day 2, all subjects begun a 3 capsule BID dosing regimen through Day 14. Subjects randomized to ibudilast started at 60 mg/d (30 mg BID) on Day 2 and remained on 60 mg/d through Day 14. Beginning on Day 15, all subjects increased dosing to 5 capsules BID regimen; those randomized to the ibudilast treatment arm were taking 100 mg/d.
After Day 15, subjects with intolerable side-effects (e.g., nausea, diarrhea, vertigo) were allowed to reduced their dose to either 4 capsules twice a day (80 mg/d for those taking ibudilast) or 3 capsules twice a day (60 mg/d for those taking ibudilast). Subjects with intolerable side-effects (e.g., nausea, diarrhea, vertigo) at the end of Day 14 were allowed to continue taking 3 capsules twice a day at the Investigator's discretion. At the Investigator's discretion, the daily dose of ibudilast were potentially adjusted between 3 capsules twice a day, 4 capsules twice a day, and 5 capsules twice a day over the first 8 weeks of treatment. At the Investigator's discretion, the daily dose of ibudilast could have been divided and taken three times per day if needed to improve tolerability. […] The dosing interval was either twice a day or 3 times per day, at the Investigator's discretion. The dosing interval could also be changed to between twice and three times per day over the course of the entire study, at the Investigator's discretion.
Progression of disability was measured according to the score on the Expanded Disability Status Scale (EDSS; range, 0 to 10 in 0.5-point increments, with higher scores indicating more disability) with the use of Cox proportional-hazards regression. Confirmed disability progression was defined as an increase in the EDSS score of at least 1.0 point from baseline (or an increase of ≥0.5 points for patients with a baseline EDSS score of >5.0) that was sustained for at least 20 weeks.

CC(C)C(=O)c1c(C(C)C)nn2ccccc12 [ibudilast, 3-isobutyryl-2-isopropylpyrazolo[1,5-a]pyridine]
CNS penetration [1]: good CNS penetration
hazard ratio for 20-week confirmed disability progression (as measured by the EDSS score) with ibudilast as compared with placebo ([2]; all subjects, ibudilast 100 mg/d oral vs placebo, 96 weeks, 95% CI): 0.74
probability of no progression at week 72 ([2]; subgroup receiving interferon-beta, ibudilast arm (placebo arm 0.804)): 0.952
proportion of subjects with disability progression at week 96 (not confirmed progression): ibudilast vs. placebo risk difference ([2]; subgroup receiving interferon-beta, week 96, 90% CI: −0.499 to −0.068): −0.283
time to confirmed disability progression, ibudilast compared with placebo (in words) ([2]; subgroup taking GA as concomitant medication): the placebo arm was superior to ibudilast
Risk of Confirmed Disability Progression: Cox Hazard Ratio (ibudilast vs. placebo) ([2]; subgroup: concomitant medication taking GA (glatiramer acetate)): 1.229
Risk of Confirmed Disability Progression: Cox Hazard Ratio (ibudilast vs. placebo) ([2]; subgroup: concomitant medication taking Interferon-Beta): 0.238
Risk of Confirmed Disability Progression: Cox Hazard Ratio (ibudilast vs. placebo) ([2]; subgroup: no concomitant glatiramer acetate or interferon-beta): 0.672
time to confirmed disability progression, ibudilast compared with placebo (in words) ([2]; the other two subgroups (concomitant interferon-beta; no concomitant medication)): ibudilast was better than placebo
